Results: US20220304976A1, “Method of simultaneously treating viral disease caused coronavirus, its variants and mutants using a pharmaceutical micronutrient composition” (priority 2021, published 2022)

Test system: A549 cells expressing SARS-CoV-2 spike protein fusing with A549 cells overexpressing hACE2
Assay type: cell-based, human

Molecule | decrease of cell attachment (cell-cell fusion) | reduction of cell-cell fusion (in words)
Oc1ccc2c(c1)OC[C@]1(O)Cc3cc(O)c(O)cc3[C@H]21 [Brazilin] | 40% | can reduce cell-cell fusion
COc1cc(/C=C/C(=O)CC(=O)/C=C/c2ccc(O)c(OC)c2)ccc1O [Curcumin] | – | can reduce cell-cell fusion
Theaflavine-3′3-digallate | – | can reduce cell-cell fusion
